Data on 24 molecules can be found in patent publication US20120015907A1, “Furopyridine compounds and uses thereof” (NOVARTIS AG, priority 2010, published 2012).

The term IC50 denotes the point on the concentration scale where inhibition reaches its midpoint.

The target in one experiment is T1, HCV polymerase (Hepatitis C virus genotype 1b, UniProt Q9WMX2).
T1 construct: (His)6 (C)
The experiment can be described thus: biochemical. The following applies: polymerase assay of Biological Example 1; read-out: NS5B polymerase IC50.

Experiment [1] relates to HCV replicon I389luc-ubi-neo/NS3-3'/ET in ET (Huh-lucubineo-ET) cells. Put plainly: Replicon assay (Biological Example 2), luciferase read-out. It is filed as cell-based. The following applies: Hepatitis C virus, luciferase activity 48 hours after compound addition. The protocol: A cell line, ET (Huh-lucubineo-ET) is used for screening of compounds for inhibiting HCV RNA dependent RNA polymerase. The ET cell line is stably transfected with RNA transcripts harboring a I389luc-ubi-neo/NS3-3′/ET; replicon with firefly luciferase-ubiquitin-neomycin phosphotransferase fusion protein and EMCV-IRES driven NS3-5B polyprotein containing the cell culture adaptive mutations (E1202G; […]; K1846T) (Krieger at al, 2001 and unpublished). The ET cells are grown in DMEM (Dulbeco's Modified Eagle's Medium), supplemented with 10% fetal calf serum, 2 mM Glutamine, Penicillin (100 IU/mL)/Streptomycin (100 μg/mL), 1× nonessential amino acids, and 250 μg/mL G418 (“Geneticin”). Reagents are all available through Life Technologies (Bethesda, Md.). The cells are plated at 0.5-1.0×10^4 cells/well in the 96 well plates and incubated for 24 hrs before adding test compound. The compounds are added to the cells to achieve a final concentration of 0.1 nM to 50 μM and a final DMSO (dimethylsulfoxide) concentration of 0.5%. Luciferase activity is measured 48 hours later by adding a lysis buffer and the substrate (Catalog number Glo-lysis buffer E2661 and Bright-Glo luciferase system E2620 Promega, Madison, Wis.). Cells should not be too confluent during the assay. Percent inhibition of replication data is plotted relative to no compound control. To determine the EC50 (effective concentration at which 50% of the maximum inhibition is observed), a 10 point, 3-fold serial dilution for each compound is used, which spans a concentration range of 1000 fold. EC50 values were calculated by fitting % inhibition at each concentration to the following equation:
% inhibition=100%/[(EC50/[I])^b+1]
where b is Hill's coefficient.

Turning to `CNC(=O)c1c(-c2ccc(C)cc2)oc2nc(N(CCC(C)O)S(C)(=O)=O)c(C3CC3)cc12` (centres unmarked) [Example 26.7, 5-cyclopropyl-6-(N-(3-hydroxybutyl)methylsulfonamido)-N-methyl-2-p-tolylfuro[2,3-b]pyridine-3-carboxamide], the values for the IC50 (on HCV polymerase; in experiment [1]) were 2 nM and at most 100 nM, respectively.

As to `CNC(=O)c1c(-c2ccc(Cl)cc2)oc2nc(N(CCCCS(C)(=O)=O)S(C)(=O)=O)c(I)cc12` [Example 18.995, 2-(4-chlorophenyl)-5-iodo-N-methyl-6-(N-(4-(methylsulfonyl)butyl)methylsulfonamido)furo[2,3-b]pyridine-3-carboxamide], the IC50 was 14 nM at HCV polymerase and at most 100 nM in experiment [1].

Regarding `CNC(=O)c1c(-c2ccc(Oc3ccccc3)cc2)oc2nc(N(CCCCC(=O)O)S(C)(=O)=O)c(C3CC3)cc12` [Example 27, 5-(N-(5-cyclopropyl-3-(methylcarbamoyl)-2-(4-phenoxyphenyl)furo[2,3-b]pyridin-6-yl)methylsulfonamido) pentanoic acid], the IC50 at HCV polymerase was 1 nM; in experiment [1] it was at most 100 nM.

`CCc1cc2c(C(=O)NC)c(-c3ccc(F)cc3)oc2nc1N(CCCN1CCCS1(=O)=O)S(C)(=O)=O` [Example 23.1, 6-{[3-(1,1-Dioxo-isothiazolidin-2-yl)-propyl]-methanesulfonyl-amino}-5-ethyl-2-(4-fluoro-phenyl)-furo[2,3-b]pyridine-3-carboxylic acid methylamide]: the values for the IC50 (at HCV polymerase; in experiment [1]) were 45 nM and at most 100 nM, respectively.

For `CNC(=O)c1c(-c2ccc(Cl)cc2)oc2nc(N(C)S(C)(=O)=O)c(C3CC3)cc12` [Example 2.96], the IC50 was 24 nM on HCV polymerase and at most 100 nM in experiment [1].

As to `CNC(=O)c1c(-c2ccc(F)cc2)oc2nc3c(cc12)C(C)CCCN3S(C)(=O)=O` (centres unmarked) [Example 30, 2-(4-Fluoro-phenyl)-9-methanesulfonyl-5-methyl-6,7,8,9-tetrahydro-5H-1-oxa-9,10-diaza-cyclohepta[f]indene-3-carboxylic acid methylamide], the 50% inhibitory concentration (IC50) was 62 nM on HCV polymerase and at most 100 nM in experiment [1].

Consider `CNC(=O)c1c(-c2ccc(F)cc2)oc2nc(N(CCCC3CCCS3(=O)=O)S(C)(=O)=O)c(C3CC3)cc12` (single isomer, unassigned) [Example 24.5, 5-Cyclopropyl-6-{[3-(1,1-dioxo-tetrahydrothiophen-2-yl)-propyI]-methanesulfonyl-amino}-2-(4-fluoro-phenyl)-furo[2,3-b]pyridine-3-carboxylic acid methylamide], for which the IC50 at HCV polymerase was 1 nM; in experiment [1] it was at most 100 nM.

For the molecule `CNC(=O)c1c(-c2ccc(F)cc2)oc2nc3c(cc12)C(C)OCCN3S(C)(=O)=O` (centres unmarked) [Example 36.2, 2-(4-Fluoro-phenyl)-9-methanesulfonyl-5-methyl-5,7,8,9-tetrahydro-1,6-dioxa-9,10-diaza-cyclohepta[f]indene-3-carboxylic acid methylamide], the IC50 on HCV polymerase was 35 nM; in experiment [1], at most 100 nM.

Regarding `CNC(=O)c1c(-c2ccc(F)cc2)oc2nc(N(CCCCS(C)(=O)=O)S(C)(=O)=O)c(C3CC3)cc12` [Example 25.7, 5-cyclopropyl-2-(4-fluorophenyl)-N-methyl-6-(N-(4-(methylsulfonyl)butyl)methylsulfonamido)furo[2,3-b]pyridine-3-carboxamide], the IC50 is 1 nM at HCV polymerase and at most 100 nM in experiment [1].

Take `CNC(=O)c1c(-c2ccc(F)cc2)oc2nc(N(C)S(C)(=O)=O)c(CCCCC(=O)O)cc12` [Example 4, 5-(2-(4-fluorophenyl)-3-(methylcarbamoyl)-6-(N-methylmethylsulfonamido)furo[2,3-b]pyridin-5-yl)pentanoic acid]: the half-maximal inhibitory concentration (IC50) at HCV polymerase is 49 nM; in experiment [1] it was at least 5000 nM.

Regarding `CNC(=O)c1c(-c2ccc(C)cc2)oc2nc(N(CC[C@H]3C[C@@H]3C(=O)O)S(C)(=O)=O)c(C3CC3)cc12` [Example 28.2, (1S,2R)-2-(2-(N-(5-cyclopropyl-3-(methylcarbamoyl)-2-p-tolylfuro[2,3-b]pyridin-6-yl)methylsulfonamido)ethyl) cyclopropanecarboxylic acid], the IC50 at HCV polymerase is 2 nM; in experiment [1], at most 100 nM.

Consider `C=Cc1cc2c(C(=O)NC)c(-c3ccc(F)cc3)oc2nc1N(CCCCC(=O)OC)S(C)(=O)=O` [Example 24.3, methyl 5-(N-(2-(4-fluorophenyl)-3-(methylcarbamoyl)-5-vinylfuro[2,3-b]pyridin-6-yl)methylsulfonamido) pentanoate], for which the IC50 is 57 nM at HCV polymerase and at most 100 nM in experiment [1].

Regarding `CNC(=O)c1c(-c2ccc(F)cc2)oc2nc(N(CCCC(C)O)S(C)(=O)=O)c(C3CC3)cc12` (centres unmarked) [Example 26.4, 5-cyclopropyl-2-(4-fluorophenyl)-6-(N-(4-hydroxypentyl)methylsulfonamido)-N-methylfuro[2,3-b]pyridine-3-carboxamide], the figures for the IC50 (at HCV polymerase; in experiment [1]) were 5 nM and at most 100 nM, respectively.

Take `CNC(=O)c1c(-c2ccc(Cl)cc2)oc2nc(N(CCCCC(=O)O)S(C)(=O)=O)c(C3CC3)cc12` [Example 27.5, 5-(N-(2-(4-chlorophenyl)-5-cyclopropyl-3-(methylcarbamoyl)furo[2,3-b]pyridin-6-yl)methylsulfonamido) pentanoic acid]: the IC50 on HCV polymerase was 1 nM; in experiment [1] it was at most 100 nM.

With `CCc1cc2c(C(=O)NC)c(-c3ccc(F)cc3)oc2nc1N(CCCCS(=O)(=O)C(C)C)S(C)(=O)=O` [Example 23.92, 5-ethyl-2-(4-fluorophenyl)-6-(N-(4-(isopropylsulfonyl)butyl)methylsulfonamido)-N-methylfuro[2,3-b]pyridine-3-carboxamide], the figures for the IC50 (on HCV polymerase; in experiment [1]) were 11 nM and at most 100 nM, respectively.

For `CNC(=O)c1c(-c2ccc(F)cc2)oc2nc(N(CCC(C)S(C)(=O)=O)S(C)(=O)=O)c(C3CC3)cc12` (centres unmarked) [Example 26.6, 5-cyclopropyl-2-(4-fluorophenyl)-N-methyl-6-(N-(3-(methylsulfonyl)butyl)methylsulfonamido)furo[2,3-b]pyridine-3-carboxamide], the values for the IC50 (on HCV polymerase; in experiment [1]) were 4 nM and at most 100 nM, respectively.

On to `CNC(=O)c1c(-c2ccc(C)cc2)oc2nc(N(CCCC(C(=O)O)c3ccccc3)S(C)(=O)=O)c(C3CC3)cc12` (centres unmarked) [Example 28.5, 5-(N-(5-cyclopropyl-3-(methylcarbamoyl)-2-p-tolylfuro[2,3-b]pyridin-6-yl)methylsulfonamido)-2-phenylpentanoic acid], for which the IC50 is 1 nM at HCV polymerase and at most 100 nM in experiment [1].

Consider `CNC(=O)c1c(-c2ccc(F)cc2)oc2nc(N(C)S(C)(=O)=O)c(CCCCCNC(=O)OC(C)(C)C)cc12` [Example 14.1, tert-butyl 5-(2-(4-fluorophenyl)-3-(methylcarbamoyl)-6-(N-methylmethylsulfonamido)furo[2,3-b]pyridin-5-yl)pentylcarbamate], for which the IC50 in experiment [1] was at most 100 nM.

For the molecule `CNC(=O)c1c(-c2ccc(F)cc2)oc2nc(N(CCCC3CCCS3(=O)=O)S(C)(=O)=O)c(C3CC3)cc12` (centres unmarked) [Example 24.6, 5-Cyclopropyl-6-{[3-(1,1-dioxo-tetrahydrothiophen-2-yl)-propyl]-methanesulfonyl-amino}-2-(4-fluoro-phenyl)-furo[2,3-b]pyridine-3-carboxylic acid methylamide], the IC50 in experiment [1] is at most 100 nM.

For `CCc1cc2c(C(=O)NC)c(-c3ccc(Oc4ccccc4)cc3)oc2nc1N(C)S(C)(=O)=O` [Example 17, 5-ethyl-N-methyl-6-(N-methylmethylsulfonamido)-2-(4-phenoxyphenyl)furo[2,3-b]pyridine-3-carboxamide], at HCV polymerase, the concentration for half-maximal inhibition (IC50) amounted to 128 nM.

Take `CNC(=O)c1c(-c2ccc(C)cc2)oc2nc(N(CCCC#N)S(C)(=O)=O)c(C3CC3)cc12` [Example 29.5, 6-(N-(3-cyanopropyl)methylsulfonamido)-5-cyclopropyl-N-methyl-2-p-tolylfuro[2,3-b]pyridine-3-carboxamide]: the IC50 at HCV polymerase was found to be 2 nM.

Turning to `CNC(=O)c1c(-c2ccc(C)cc2)oc2nc(N(C)S(C)(=O)=O)c(CC(O)CO)cc12` (centres unmarked) [Example 9.1, 5-(2,3-dihydroxypropyl)-N-methyl-6-(N-methylmethylsulfonamido)-2-p-tolylfuro[2,3-b]pyridine-3-carboxamide], the IC50 on HCV polymerase stood at 117 nM.

For the molecule `CNC(=O)c1c(-c2ccc(C)cc2)oc2nc(N(CCCC3(C(=O)O)CCNCC3)S(C)(=O)=O)c(C3CC3)cc12` [Example 29.99991, 4-(3-(N-(5-cyclopropyl-3-(methylcarbamoyl)-2-p-tolylfuro[2,3-b]pyridin-6-yl)methylsulfonamido)propyl) piperidine-4-carboxylic acid], the IC50 at HCV polymerase worked out at 129 nM.

Turning to `CNC(=O)c1c(-c2ccc(C)cc2)oc2nc(N(CCC[C@H](C)C(=O)OCOP(=O)(O)O)S(C)(=O)=O)c(C3CC3)cc12` [Example 49, (S)-(phosphonooxy)methyl 5-(N-(5-cyclopropyl-3-(methylcarbamoyl)-2-(p-tolyl)furo[2,3-b]pyridin-6-yl)methylsulfonamido)-2-methylpentanoate], the IC50 on HCV polymerase was determined as 2 nM.
